Tests used:
[1] = Hygroscopicity and solid-form stability of paclitaxel crystal forms; type: physicochemical

| Compound | conversion of crystal form ([1]; Form A: relative humidity greater than about 90% or aqueous suspensions, Form D: relatively high humidity) | hygroscopicity ([1]; normal laboratory conditions (RH approximately 50-60%; 20-30° C.)) | water solubility |
| --- | --- | --- | --- |
| CC(=O)O[C@H]1C(=O)[C@@]2(C)[C@H]([C@H](OC(=O)c3ccccc3)[C@]3(O)C[C@H](OC(=O)[C@H](O)[C@@H](NC(=O)c4ccccc4)c4ccccc4)C(C)=C1C3(C)C)[C@]1(OC(C)=O)CO[C@@H]1C[C@@H]2O [Form A, Paclitaxel] | converts (as a function of time, temperature, agitation, etc.) to a thermodynamically more stable form | substantially non-hygroscopic | highly water insoluble |
| CC(=O)OC1C(=O)C2(C)C(O)CC3OCC3(OC(C)=O)C2C(OC(=O)c2ccccc2)C2(O)CC(OC(=O)C(O)C(NC(=O)c3ccccc3)c3ccccc3)C(C)=C1C2(C)C.O.O.O (stereo not shown) [Form B] | – | – | even less water soluble than Form A |
